Source: the RepoRT retention time repository

Assay: HILIC, Waters ACQUITY UPLC BEH Amide, 100 × 2.1 mm, 1.7 µm; A: water + 0.125% formic acid + 10 mM ammonium formate; B: 5% water + 95% acetonitrile + 0.125% formic acid + 10 mM ammonium formate; gradient (min/%B) 0/100 2/100 7.7/70 9.5/40 10.25/30 12.75/100 17/100
Details: stereoisomer not certain

SMILES	LC retention time [min]
C=Cc1ccc(O)c(OC)c1 [2-Methoxy-4-vinylphenol]	8.71
CCCCCCCCCCCCCC(=O)OC(CO)CO [2-Myristoylglycerol]	1.01
CCCCCCCCCCCCCCCC(=O)OC(CO)CO [2-Palmitoylglycerol]	0.99
NC(=O)Cc1ccccc1 [2-Phenylacetamide]	1.26
CCC(=O)NCC(=O)O [2-Propanamidoacetic acid]	5.37
O=c1cccc[nH]1 [2-Pyridone]	2.05
Nc1ccn(C2OC(CO)C(O)C2O)c(=S)n1 (stereo not drawn) [2-Thiocytidine]	5.33
O=c1ccn(C2OC(CO)C(O)C2O)c(=S)[nH]1 (stereo not drawn) [2-Thiouridine]	2.48
OCC1OC(OC2C(O)OC(CO)C(O)C2O)C(O)C(O)C1O (stereo not drawn) [2-alpha-Mannobiose]	9.47
Nc1ncnc2c1ncn2C1CC2OP(=O)(O)OCC2O1 (stereo not drawn) [3',5'-Cyclic dAMP]	7.29
COC1C(CO)OC(n2ccc(N)nc2=O)C1O (stereo not drawn) [3'-O-Methylcytidine]	5.09
COC1C(CO)OC(n2cnc3c(=O)[nH]c(N)nc32)C1O (stereo not drawn) [3'-O-Methylguanosine]	5.8
COC1C(CO)OC(n2ccc(=O)[nH]c2=O)C1O (stereo not drawn) [3'-O-Methyluridine]	2.42
O=C(O)C(O)c1ccc(O)c(O)c1 (stereo not drawn) [3,4-Dihydroxymandelic acid]	2.3
NC(Cc1ccc(O)c(O)c1)C(=O)O (stereo not drawn) [3,4-Dihydroxyphenylalanine]	8.31
COc1ccc(C=O)cc1OC [3,4-Dimethoxybenzaldehyde]	1.08
CCNC(C)Cc1ccc2c(c1)OCO2 (stereo not drawn) [3,4-Methylenedioxyethamphetamine]	2.94
NC(Cn1cccn1)C(=O)O (stereo not drawn) [3-(1-Pyrazolyl)-alanine]	7.54
NC(CC(=O)O)c1ccc(O)cc1 (stereo not drawn) [3-Amino-3-(4-hydroxyphenyl)propionic acid]	7.42
CC(CN)C(=O)O (stereo not drawn) [3-Aminoisobutyric acid]	7.4
Nc1cc(CC(N)C(=O)O)ccc1O (stereo not drawn) [3-Aminotyrosine]	8.06
NC(Cc1ccc(O)c(Cl)c1)C(=O)O (stereo not drawn) [3-Chlorotyrosine]	7.13
O=c1ccn(C2OC(CO)CC2O)c(=O)[nH]1 (stereo not drawn) [3-Deoxyuridine]	2.87
NC(N)=NCCC(=O)O [3-Guanidinopropionic acid]	8.15

SMILES	LC retention time [min]
Nc1c(O)cccc1C(=O)O [3-Hydroxyanthranilic acid]	1.48
O=Cc1cccc(O)c1 [3-Hydroxybenzaldehyde]	1.18
CC(O)CC(=O)OC(CC(=O)[O-])C[N+](C)(C)C (stereo not drawn) [3-Hydroxybutyrylcarnitine]	7.62
Nc1c(O)cccc1C(=O)CC(N)C(=O)O (stereo not drawn) [3-Hydroxykynurenine]	7.35
O=C(O)Cc1cccc(O)c1 [3-Hydroxyphenylacetic acid]	1.45
NC(Cc1cccc(O)c1)C(=O)O (stereo not drawn) [3-Hydroxyphenylalanine]	7.44
O=C(O)C1NCCC1O (stereo not drawn) [3-Hydroxyproline]	8.17
O=C(O)CCCCCCC(O)CC(=O)O (stereo not drawn) [3-Hydroxysebacic acid]	2.55
CCC(O)CC(=O)O (stereo not drawn) [3-Hydroxyvaleric acid]	1.29
O=C(O)Cc1c[nH]c2ccccc12 [3-Indoleacetic acid]	1.33
N#CCc1c[nH]c2ccccc12 [3-Indoleacetonitrile]	8.02
O=C(O)CCc1c[nH]c2ccccc12 [3-Indolepropionic acid]	1.28
CC(C)=CC(=O)NCC(=O)O [3-Methylcrotonylglycine]	2.95
Cn1c(=N)ccn(C2OC(CO)C(O)C2O)c1=O (stereo not drawn) [3-Methylcytidine]	6.99
Cn1cncc1CC(N)C(=O)O (stereo not drawn) [3-Methylhistidine]	9.41
CC1C(=O)Nc2ccccc21 (stereo not drawn) [3-Methyloxyindole]	1.07
CSCCCN [3-Methylthiopropylamine]	5.16
Cn1c(=O)ccn(C2OC(CO)C(O)C2O)c1=O (stereo not drawn) [3-Methyluridine]	1.12
NC(Cc1ccc(O)c([N+](=O)[O-])c1)C(=O)O (stereo not drawn) [3-Nitrotyrosine]	6.88
CCCCCC(O)CC (stereo not drawn) [3-Octanol]	8.47
O=C(O)CCP(=O)(O)O [3-Phosphonopropionic acid]	8.59
OCc1cccnc1 [3-Pyridinemthanol]	1.41
C[Si](C)(C)CCC(=O)O [3-Trimethylsilylpropionic acid]	5.64
NC(=O)NCCC(=O)O [3-Ureidopropionic acid]	5.6
